Data: PubChem BioAssay (NCI)
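Grown in 96-well plates, cells were treated for 48 hours with each compound at five concentrations. Insufficient inhibition: endpoint recorded as highest concentration tested. GI50 marks 50% less growth. Definition used: TGI = concentration required for complete inhibition of growth.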

What was measured:
Assay in all cases: growth of human tumour cells (NCI), 48 h
786-0 renal = test system: 786-0 renal
A498 renal = test system: A498 renal
A549 NSCLC = test system: A549 NSCLC
BT-549 breast = test system: BT-549 breast
CCRF-CEM leukemia = test system: CCRF-CEM leukemia
COLO 205 colon = test system: COLO 205 colon
DU-145 prostate = test system: DU-145 prostate
EKVX NSCLC = test system: EKVX NSCLC
HCC-2998 colon = test system: HCC-2998 colon
HCT-116 colon = test system: HCT-116 colon
HCT-15 colon = test system: HCT-15 colon
HL-60(TB) leukemia = test system: HL-60(TB) leukemia
HOP-62 NSCLC = test system: HOP-62 NSCLC
HOP-92 NSCLC = test system: HOP-92 NSCLC
HS 578T breast = test system: HS 578T breast
IGROV1 ovarian = test system: IGROV1 ovarian
K-562 leukemia = test system: K-562 leukemia
KM12 colon = test system: KM12 colon
LOX IMVI melanoma = test system: LOX IMVI melanoma
MCF7 breast = test system: MCF7 breast
MDA-MB-231 breast = test system: MDA-MB-231 breast
MDA-MB-435 = test system: MDA-MB-435
MOLT-4 leukemia = test system: MOLT-4 leukemia
NCI-H226 lung = test system: NCI-H226 lung
NCI-H23 lung = test system: NCI-H23 lung
NCI-H460 lung = test system: NCI-H460 lung
NCI-H522 lung = test system: NCI-H522 lung
NCI/ADR-RES ovarian = test system: NCI/ADR-RES ovarian
OVCAR-3 ovarian = test system: OVCAR-3 ovarian
OVCAR-4 ovarian = test system: OVCAR-4 ovarian
OVCAR-5 ovarian = test system: OVCAR-5 ovarian
OVCAR-8 ovarian = test system: OVCAR-8 ovarian
PC-3 prostate = test system: PC-3 prostate
RPMI-8226 leukemia = test system: RPMI-8226 leukemia
RXF 393 renal = test system: RXF 393 renal
SF-268 CNS = test system: SF-268 CNS
SF-295 CNS = test system: SF-295 CNS
SF-539 CNS = test system: SF-539 CNS
SK-MEL-2 melanoma = test system: SK-MEL-2 melanoma
SK-MEL-28 melanoma = test system: SK-MEL-28 melanoma
SK-MEL-5 melanoma = test system: SK-MEL-5 melanoma
SK-OV-3 ovarian = test system: SK-OV-3 ovarian
SN12C renal = test system: SN12C renal
SNB-19 CNS = test system: SNB-19 CNS
SNB-75 CNS = test system: SNB-75 CNS
SR leukemia = test system: SR leukemia
SW-620 colon = test system: SW-620 colon
TK-10 renal = test system: TK-10 renal
U251 CNS = test system: U251 CNS
UACC-257 melanoma = test system: UACC-257 melanoma
UACC-62 melanoma = test system: UACC-62 melanoma
UO-31 renal = test system: UO-31 renal

With COC(=O)[C@@H](C)C[C@H](Cc1ccccc1)NC(=O)c1nc([C@@H](C[C@H](C(C)C)N(C)C(=O)[C@@H](NC(=O)[C@H]2CCCN2C)C(C)C)OC(C)=O)sc1C the GI50 (786-0 renal) was under 2.5 nM, the TGI (786-0 renal) was 24200 nM and the GI50 (A498 renal) was under 2.5 nM. For the same compound, the TGI (A498 renal) was 8.08 nM, the GI50 (A549 NSCLC) was 20.7 nM and the TGI (A549 NSCLC) was over 25000 nM. For the same compound, the GI50 (BT-549 breast) was under 2.5 nM, the TGI (BT-549 breast) was 145 nM and the GI50 (CCRF-CEM leukemia) was under 2.5 nM. For the same compound, the TGI (CCRF-CEM leukemia) was over 25000 nM, the GI50 (COLO 205 colon) was 2.75 nM and the TGI (COLO 205 colon) was 32.6 nM. The GI50 (DU-145 prostate) was under 2.5 nM, the TGI (DU-145 prostate) was over 25000 nM and the GI50 (EKVX NSCLC) was 10.6 nM. It also gave a TGI (EKVX NSCLC) of over 25000 nM, a GI50 (HCC-2998 colon) of under 2.5 nM and a TGI (HCC-2998 colon) of over 25000 nM. For the same compound, the GI50 (HCT-116 colon) was under 2.5 nM, the TGI (HCT-116 colon) was over 25000 nM and the GI50 (HCT-15 colon) was 11.9 nM. For the same compound, the TGI (HCT-15 colon) was over 25000 nM, the GI50 (HL-60(TB) leukemia) was under 2.5 nM and the TGI (HL-60(TB) leukemia) was under 2.5 nM. For the same compound, the GI50 (HOP-62 NSCLC) was 6.18 nM, the TGI (HOP-62 NSCLC) was over 25000 nM and the GI50 (HOP-92 NSCLC) was 7330 nM. It also gave a TGI (HOP-92 NSCLC) of over 25000 nM, a GI50 (HS 578T breast) of under 2.5 nM and a TGI (HS 578T breast) of 15800 nM. For the same compound, the GI50 (IGROV1 ovarian) was under 2.5 nM, the TGI (IGROV1 ovarian) was over 25000 nM and the GI50 (K-562 leukemia) was under 2.5 nM. For the same compound, the TGI (K-562 leukemia) was over 25000 nM, the GI50 (KM12 colon) was under 2.5 nM and the TGI (KM12 colon) was over 25000 nM. It also gave a GI50 (LOX IMVI melanoma) of 8.37 nM, a TGI (LOX IMVI melanoma) of over 25000 nM and a GI50 (MCF7 breast) of under 2.5 nM. For the same compound, the TGI (MCF7 breast) was over 25000 nM, the GI50 (MDA-MB-231 breast) was 6.13 nM and the TGI (MDA-MB-231 breast) was 4640 nM. For the same compound, the GI50 (MDA-MB-435) was under 2.5 nM, the TGI (MDA-MB-435) was under 2.5 nM and the GI50 (MOLT-4 leukemia) was 2.78 nM. The TGI (MOLT-4 leukemia) was over 25000 nM, the GI50 (NCI-H226 lung) was 160 nM and the TGI (NCI-H226 lung) was over 25000 nM. It also gave a GI50 (NCI-H23 lung) of 8.06 nM, a TGI (NCI-H23 lung) of over 25000 nM and a GI50 (NCI-H460 lung) of under 2.5 nM. The TGI (NCI-H460 lung) was over 25000 nM, the GI50 (NCI-H522 lung) was under 2.5 nM and the TGI (NCI-H522 lung) was under 2.5 nM. For the same compound, the GI50 (NCI/ADR-RES ovarian) was 235 nM, the TGI (NCI/ADR-RES ovarian) was over 25000 nM and the GI50 (OVCAR-3 ovarian) was under 2.5 nM. The TGI (OVCAR-3 ovarian) was over 25000 nM, the GI50 (OVCAR-4 ovarian) was 542 nM and the TGI (OVCAR-4 ovarian) was over 25000 nM. The GI50 (OVCAR-5 ovarian) was 10.5 nM, the TGI (OVCAR-5 ovarian) was over 25000 nM and the GI50 (OVCAR-8 ovarian) was under 2.5 nM. It also gave a TGI (OVCAR-8 ovarian) of over 25000 nM, a GI50 (PC-3 prostate) of under 2.5 nM and a TGI (PC-3 prostate) of over 25000 nM. It also gave a GI50 (RPMI-8226 leukemia) of under 2.5 nM, a TGI (RPMI-8226 leukemia) of over 25000 nM and a GI50 (RXF 393 renal) of under 2.5 nM. For the same compound, the TGI (RXF 393 renal) was over 25000 nM, the GI50 (SF-268 CNS) was 7.12 nM and the TGI (SF-268 CNS) was over 25000 nM. It also gave a GI50 (SF-295 CNS) of under 2.5 nM, a TGI (SF-295 CNS) of over 25000 nM and a GI50 (SF-539 CNS) of 3.39 nM. For the same compound, the TGI (SF-539 CNS) was 201 nM, the GI50 (SK-MEL-2 melanoma) was under 2.5 nM and the TGI (SK-MEL-2 melanoma) was over 25000 nM. The GI50 (SK-MEL-28 melanoma) was 16.5 nM, the TGI (SK-MEL-28 melanoma) was over 25000 nM and the GI50 (SK-MEL-5 melanoma) was under 2.5 nM. The TGI (SK-MEL-5 melanoma) was 69.8 nM, the GI50 (SK-OV-3 ovarian) was under 2.5 nM and the TGI (SK-OV-3 ovarian) was over 25000 nM. The GI50 (SN12C renal) was under 2.5 nM, the TGI (SN12C renal) was over 25000 nM and the GI50 (SNB-19 CNS) was under 2.5 nM. It also gave a TGI (SNB-19 CNS) of over 25000 nM, a GI50 (SNB-75 CNS) of under 2.5 nM and a TGI (SNB-75 CNS) of over 25000 nM. For the same compound, the GI50 (SR leukemia) was under 2.5 nM, the TGI (SR leukemia) was over 25000 nM and the GI50 (SW-620 colon) was under 2.5 nM. The TGI (SW-620 colon) was over 25000 nM, the GI50 (TK-10 renal) was over 25000 nM and the TGI (TK-10 renal) was over 25000 nM. The GI50 (U251 CNS) was 3.47 nM, the TGI (U251 CNS) was over 25000 nM and the GI50 (UACC-257 melanoma) was over 25000 nM. For the same compound, the TGI (UACC-257 melanoma) was over 25000 nM, the GI50 (UACC-62 melanoma) was under 2.5 nM and the TGI (UACC-62 melanoma) was over 25000 nM. For the same compound, the GI50 (UO-31 renal) was 15.4 nM and the TGI (UO-31 renal) was over 25000 nM.
